Assay results taken from ChEMBL document CHEMBL1201862, “PubChem BioAssay data set” (2004).
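Compound exposure: 48 hours, 5 concentrations, 96-well plates. GI50 = concentration required for 50% inhibition of growth.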 Calls of active or inactive are those of the source. Rule as the data show it: active = GI50 up to about 1.1 µM and inactive = higher.

Legend:
Assay in all cases: NCI-60 cell line screen, 48 h
SF-539 = test system: SF-539
MOLT-4 = test system: MOLT-4
NCI-H522 = test system: NCI-H522
NCI-H460 = test system: NCI-H460
SR = test system: SR
HT-29 = test system: HT-29
KM12 = test system: KM12
CAKI-1 = test system: CAKI-1
LOX IMVI = test system: LOX IMVI
NCI-H226 = test system: NCI-H226
IGROV-1 = test system: IGROV-1
UO-31 = test system: UO-31
UACC-62 = test system: UACC-62
HOP-92 = test system: HOP-92
SNB-75 = test system: SNB-75
786-0 = test system: 786-0
OVCAR-3 = test system: OVCAR-3
Malme-3M = test system: Malme-3M

Row | SMILES | GI50 (SF-539) | GI50 (MOLT-4) | GI50 (NCI-H522) | GI50 (NCI-H460) | GI50 (SR) | GI50 (HT-29) | GI50 (KM12) | GI50 (CAKI-1) | GI50 (LOX IMVI) | GI50 (NCI-H226) | GI50 (IGROV-1) | GI50 (UO-31) | GI50 (UACC-62) | GI50 (HOP-92) | GI50 (SNB-75) | GI50 (786-0) | GI50 (OVCAR-3) | GI50 (Malme-3M)
1 | CC(=O)NNc1nc(C)c(C(=O)NNC(=O)C(=O)Nc2c(C)cccc2C(C)(C)C)s1 | > 100 µM (inactive) | 41.1 µM (inactive) | 20.9 µM (inactive) | 52.2 µM (inactive) | 48.2 µM (inactive) | 64 µM (inactive) | > 100 µM (inactive) | 49.5 µM (inactive) | 57.8 µM (inactive) | > 100 µM (inactive) | 93.3 µM (inactive) | 47.8 µM (inactive) | 97.9 µM (inactive) | > 100 µM (inactive) | > 100 µM (inactive) |  |  | 
2 | CCOc1cc(/C=C/C=C/c2ccc(N(C)C)cc2)[s+]c2ccccc12 | 14.1 µM (inactive) | 6.85 µM (inactive) |  | 18.6 µM (inactive) |  | 35.8 µM (inactive) | 17.1 µM (inactive) | 23.7 µM (inactive) | 15.4 µM (inactive) |  | 21.6 µM (inactive) |  | 14.4 µM (inactive) | 23.5 µM (inactive) | 28.4 µM (inactive) | 19 µM (inactive) | 14.2 µM (inactive) | 28.9 µM (inactive)
3 | CC(=O)Nc1ccc(/C=C/c2ccc(NC(=O)Nc3ccc(/C=C/c4ccc(NC(C)=O)cc4S(=O)(=O)O)c(S(=O)(=O)O)c3)cc2S(=O)(=O)O)c(S(=O)(=O)O)c1 | > 100 µM (inactive) | > 100 µM (inactive) | > 100 µM (inactive) | > 100 µM (inactive) |  | > 100 µM (inactive) | > 100 µM (inactive) |  | > 94.2 µM (inactive) | 39.8 µM (inactive) | > 100 µM (inactive) | > 100 µM (inactive) | > 100 µM (inactive) | 43.1 µM (inactive) | 53.8 µM (inactive) |  | > 100 µM (inactive) | > 100 µM (inactive)
4 | CC[C@@]1(O)C[C@H](OC2CC(N(C)C)C(OC3CC(O)C(OC4CC(O)C(O)C(C)O4)C(C)O3)C(C)O2)c2c(cc3c(c2O)C(=O)c2c(O)ccc(O)c2C3=O)[C@H]1C(=O)OC (some centres undefined) | < 0.0214 µM (active) | 0.0141 µM (active) | 0.0343 µM (active) | 0.00577 µM (active) |  | 0.022 µM (active) | < 0.0174 µM (active) | 0.0082 µM (active) | 0.163 µM (active) | 0.0427 µM (active) | < 0.023 µM (active) | 0.112 µM (active) | 0.017 µM (active) | 0.0902 µM (active) | 0.0548 µM (active) |  | 0.0321 µM (active) | 0.0478 µM (active)
5 | COc1ccc(NN=C2C(=O)CCC2=O)cc1 | > 100 µM (inactive) | > 100 µM (inactive) |  | > 100 µM (inactive) |  | > 100 µM (inactive) | > 100 µM (inactive) | > 100 µM (inactive) | > 100 µM (inactive) | > 100 µM (inactive) | > 100 µM (inactive) | 98.9 µM (inactive) | 5.69 µM (inactive) | > 100 µM (inactive) | > 100 µM (inactive) | > 100 µM (inactive) | > 100 µM (inactive) | > 100 µM (inactive)
6 | c1ccc(-c2ccnc3c2ccc2c(-c4ccccc4)ccnc23)cc1 | 2.06 µM (inactive) | 0.514 µM (active) | 1.46 µM (inactive) | 2.39 µM (inactive) | 0.273 µM (active) | 1.18 µM (inactive) | 0.628 µM (active) |  | 2.31 µM (inactive) | 1.65 µM (inactive) | 0.931 µM (active) | 0.5 µM (active) | 0.418 µM (active) |  | 2.92 µM (inactive) | 2.64 µM (inactive) | 2.47 µM (inactive) | 4.06 µM (inactive)
7 | N#CCC(=O)N/N=C1/C(=O)N(c2cc(Cl)ccc2Cl)C(=O)C(=O)C1c1nc2ccccc2s1 (centres undefined) | > 100 µM (inactive) | 45.9 µM (inactive) | 61 µM (inactive) | 95.7 µM (inactive) |  | > 100 µM (inactive) | > 100 µM (inactive) | 29.5 µM (inactive) | 64 µM (inactive) | > 100 µM (inactive) | > 100 µM (inactive) | 36.9 µM (inactive) | 29.8 µM (inactive) | 19.8 µM (inactive) | 38 µM (inactive) | > 100 µM (inactive) | 54.6 µM (inactive) | > 100 µM (inactive)
8 | CC1(C)CC2(CC(C)(C)N1O)NC(=O)OC2=O | > 100 µM (inactive) | > 100 µM (inactive) | > 100 µM (inactive) | > 31.6 µM (inactive) |  | > 100 µM (inactive) | > 100 µM (inactive) | > 100 µM (inactive) | > 100 µM (inactive) | > 100 µM (inactive) | > 100 µM (inactive) | > 100 µM (inactive) | > 100 µM (inactive) | > 100 µM (inactive) | > 67.3 µM (inactive) |  | > 100 µM (inactive) | > 100 µM (inactive)
9 | Cc1ccc(C2CC(c3ccc([N+](=O)[O-])cc3)=Nc3ccccc3S2)cc1 (centres undefined) | 26.2 µM (inactive) | 15.1 µM (inactive) | 20.1 µM (inactive) | 36.9 µM (inactive) |  | 26.6 µM (inactive) | 18.4 µM (inactive) | 31 µM (inactive) | 15.3 µM (inactive) | 44.6 µM (inactive) | 23.4 µM (inactive) | 18.9 µM (inactive) | 32.8 µM (inactive) |  | 21.4 µM (inactive) | 14.6 µM (inactive) | 24.7 µM (inactive) | 50.8 µM (inactive)
10 | CC(C(=O)OCc1ccccc1)N(Cc1ccccc1)Cc1ccccc1 (centres undefined) | > 100 µM (inactive) | 33 µM (inactive) | 29.2 µM (inactive) | > 100 µM (inactive) | 31 µM (inactive) | 46.8 µM (inactive) | 58.7 µM (inactive) | > 100 µM (inactive) |  |  | > 100 µM (inactive) | 75.3 µM (inactive) | > 100 µM (inactive) | > 100 µM (inactive) | 42.7 µM (inactive) |  | > 100 µM (inactive) | 51.2 µM (inactive)
11 | CC(=O)N(CCN)CCN |  | > 10 µM (inactive) | > 10 µM (inactive) | > 10 µM (inactive) | > 10 µM (inactive) |  | > 10 µM (inactive) | > 10 µM (inactive) | > 10 µM (inactive) |  |  | > 10 µM (inactive) | > 100 µM (inactive) | > 10 µM (inactive) | > 100 µM (inactive) | > 10 µM (inactive) | > 10 µM (inactive) | 
12 | COc1ccc(C2C(Cl)C(=O)N2NC(=O)Cc2ccccc2)cc1OC (centres undefined) |  | > 100 µM (inactive) | > 100 µM (inactive) | > 100 µM (inactive) | > 100 µM (inactive) | > 100 µM (inactive) | > 100 µM (inactive) | > 100 µM (inactive) | > 100 µM (inactive) | > 100 µM (inactive) | > 100 µM (inactive) | > 100 µM (inactive) | > 100 µM (inactive) |  | > 100 µM (inactive) | > 100 µM (inactive) | > 100 µM (inactive) | > 100 µM (inactive)
13 | COC(=O)C1=CC(=O)[C@@H]2CCCC[C@H]12 | > 100 µM (inactive) | > 100 µM (inactive) | > 100 µM (inactive) | > 100 µM (inactive) | > 100 µM (inactive) |  | > 100 µM (inactive) | > 100 µM (inactive) |  | > 100 µM (inactive) |  | > 100 µM (inactive) | > 100 µM (inactive) |  | > 100 µM (inactive) | > 100 µM (inactive) | > 100 µM (inactive) | > 100 µM (inactive)
14 | Cc1nc2c(=O)[nH]c(=O)n(C)c2[nH]c1=O.c1ccncc1 |  | > 100 µM (inactive) | > 100 µM (inactive) | > 100 µM (inactive) | > 100 µM (inactive) | > 100 µM (inactive) | > 100 µM (inactive) | > 100 µM (inactive) | > 100 µM (inactive) | > 100 µM (inactive) | > 100 µM (inactive) | > 100 µM (inactive) | > 100 µM (inactive) | > 100 µM (inactive) | > 100 µM (inactive) | > 100 µM (inactive) | > 100 µM (inactive) | > 100 µM (inactive)
15 | Cc1ccc(C(=O)Nc2ncn(C3CC(O)C(CO)O3)c(=O)n2)cc1 (centres undefined) | > 100 µM (inactive) | > 29.6 µM (inactive) | > 100 µM (inactive) | > 100 µM (inactive) |  | > 100 µM (inactive) | > 100 µM (inactive) | > 100 µM (inactive) | > 100 µM (inactive) | > 100 µM (inactive) | > 100 µM (inactive) | > 100 µM (inactive) | > 100 µM (inactive) | > 100 µM (inactive) | > 52.6 µM (inactive) |  | > 33.3 µM (inactive) | > 100 µM (inactive)
16 | CNS(=O)(=O)NN(C)S(=O)(=O)c1ccc(Cl)cc1 | > 100 µM (inactive) | > 100 µM (inactive) | > 100 µM (inactive) |  | > 100 µM (inactive) | > 100 µM (inactive) | > 100 µM (inactive) | > 100 µM (inactive) | > 100 µM (inactive) | > 100 µM (inactive) | > 100 µM (inactive) | > 100 µM (inactive) | > 100 µM (inactive) |  | > 100 µM (inactive) | > 100 µM (inactive) | > 100 µM (inactive) | > 100 µM (inactive)
17 | COc1cccc(C2SCc3nc4ccccc4n32)c1 (centres undefined) | > 100 µM (inactive) | 66.1 µM (inactive) |  | > 100 µM (inactive) |  | 41.9 µM (inactive) | 56.4 µM (inactive) | 37.9 µM (inactive) | 54.6 µM (inactive) | 51.4 µM (inactive) | 45.5 µM (inactive) | 22.1 µM (inactive) | 49.9 µM (inactive) | 12.2 µM (inactive) | 53 µM (inactive) | > 100 µM (inactive) | 35.2 µM (inactive) | 54.6 µM (inactive)
